Data from ChEMBL document CHEMBL2380205, “Discovery of a new class of natural product-inspired quinazolinone hybrid as potent antileishmanial agents” (J Med Chem, 2013).
pIC50: −log10 of the molar value.

Tests used:
Leishmania donovani [1] = experiment: Antileishmanial activity against promastigotes of Leishmania donovani MHOM/IN/60/Dd8 after 72 hrs by luciferase reporter gene assay; assay type: functional, organism-based; conditions: MHOM/IN/60/Dd8, 72 h
Leishmania donovani [2] = experiment: Antileishmanial activity against amastigotes of Leishmania donovani MHOM/IN/60/Dd8 infected in mouse J-774A.1 cells after 72 hrs by luciferase reporter gene assay; assay type: functional, organism-based; conditions: MHOM/IN/60/Dd8, J774.A1, 72 h
[3] = Selectivity index, ratio of CC50 for mouse J774A1 cells to IC50 for amastigotes of Leishmania donovani MHOM/IN/60/Dd8 infected in mouse J-774A.1 cells; assay type: functional, J774.A1
[4] = Cytotoxicity against african green monkey Vero cells after 72 hrs by MTT assay; assay type: cell-based; conditions: chlorocebus sabaeus
[5] = Cytotoxicity against mouse J774A1 cells after 72 hrs by MTT assay; assay type: cell-based, J774.A1
Leishmania donovani [6] = experiment: Antileishmanial activity against amastigotes of Leishmania donovani MHOM/IN/60/Dd8 infected in golden hamster assessed as amastigote count at 50 mg/kg/day, ip administered for 5 days measured on day 7 of post last dose by Giemsa staining; assay type: functional; conditions: MHOM/IN/60/Dd8, ip, route intraperitoneal
[7] = Lipophilicity, log P of the compound; assay type: physicochemical; conditions: octanol/water

SMILES | pIC50 (Leishmania donovani [1]) | pIC50 (Leishmania donovani [2]) | Ratio CC50/IC50 [3] | CC50 at 72 h [4] [µM] | CC50 at 72 h [5] [µM] | inhibition in vivo at 50 mg/kg/day (Leishmania donovani [6]) [%] | logP [7]
Nc1nc(-c2ccccc2)cc(-c2ccc(C3NC(=O)c4ccccc4N3)cc2)n1 (stereo not given) | 5.39 | 4.77 | – | – | – | – | –
COc1ccc(C(Nc2ccc(C3(C)NC(=O)c4ccccc4N3)cc2)c2nnnn2C2CCCCC2)cc1 (stereo not given) | < 4.40 | 4.78 | – | – | – | – | –
CC1(c2ccc(NC(c3cccc4ccccc34)c3nnnn3C(C)(C)C)cc2)NC(=O)c2ccccc2N1 (stereo not given) | 5.41 | < 4.70 | – | – | – | – | –
CC1(c2ccc(NC(c3ccncc3)c3nnnn3C(C)(C)C)cc2)NC(=O)c2ccccc2N1 (stereo not given) | < 4.40 | < 4.40 | – | – | – | – | –
CC1(c2ccc(NC(c3ccc(Br)cc3)c3nnnn3C(C)(C)C)cc2)NC(=O)c2ccccc2N1 (stereo not given) | 4.62 | 5.07 | 47.28 | > 400 | 400 | – | –
CC1(c2ccc(NC(c3ccc(Cl)cc3)c3nnnn3C3CCCCC3)cc2)NC(=O)c2ccccc2N1 (stereo not given) | 4.40 | 4.95 | >35.3 | > 400 | > 400 | – | –
CC1(c2ccc(NC(c3ccc(Cl)cc3)c3nnnn3C(C)(C)C)cc2)NC(=O)c2ccccc2N1 (stereo not given) | 5.92 | 5.15 | >56.65 | > 400 | > 400 | – | –
CC1(c2ccc(Nc3nc(N4CCOCC4)nc(N4CCOCC4)n3)cc2)NC(=O)c2ccccc2N1 (stereo not given) | < 4.40 | < 4.40 | – | – | – | – | –
CC1(c2ccc(Nc3nc(NCc4ccco4)nc(NCc4ccco4)n3)cc2)NC(=O)c2ccccc2N1 (stereo not given) | 4.88 | < 4.70 | – | – | – | – | –
Nc1nc(-c2ccc(F)cc2)cc(-c2ccc(C3NC(=O)c4ccccc4N3)cc2)n1 (stereo not given) | 5.01 | 4.61 | – | – | – | – | –
COc1ccc(C(C(=O)NC2CCCCC2)N(C(=O)c2cccc(Cl)c2)c2ccc(C3(C)NC(=O)c4ccccc4N3)cc2)cc1 (stereo not given) | < 4.40 | 4.81 | – | – | – | – | –
CC1(c2ccc(Nc3nc(N4CCC(O)CC4)nc(N4CCC(O)CC4)n3)cc2)NC(=O)c2ccccc2N1 (stereo not given) | < 4.40 | < 4.40 | – | – | – | – | –
CC(C)(C)n1nnnc1C(NCc1ccccc1)c1ccc(C2NC(=O)c3ccccc3N2)cc1 (stereo not given) | 5.44 | < 4.40 | – | – | – | – | –
COc1cc(C(Nc2ccc(C3(C)NC(=O)c4ccccc4N3)cc2)c2nnnn2C(C)(C)C)cc(OC)c1OC (stereo not given) | < 4.40 | < 4.40 | – | – | – | – | –
CC(C)(C)Nc1nc(Nc2ccc(C3(C)NC(=O)c4ccccc4N3)cc2)nc(NC(C)(C)C)n1 (stereo not given) | 5.99 | 5.26 | 11.07 | 159 | 60.7 | – | –
CC(C)c1ccc(C(C(=O)NC(C)(C)C)N(C(=O)c2cccc(Cl)c2)c2ccc(C3(C)NC(=O)c4ccccc4N3)cc2)cc1 (stereo not given) | < 4.40 | 4.92 | >33.25 | > 400 | > 400 | – | –
CCCCCNC(c1ccc(C2NC(=O)c3ccccc3N2)cc1)c1nnnn1C(C)(C)C (stereo not given) | 5.72 | < 4.40 | – | – | – | – | –
Nc1nc(-c2ccc(C3NC(=O)c4ccccc4N3)cc2)cc(-c2ccccc2Cl)n1 (stereo not given) | 5.05 | 4.82 | – | – | – | – | –
CC1(c2ccc(Nc3nc(Nc4ccccc4)nc(Nc4ccccc4)n3)cc2)NC(=O)c2ccccc2N1 (stereo not given) | 5.52 | – | – | – | – | – | –
CC1(c2ccc(Nc3nc(N4CCCCCC4)nc(N4CCCCCC4)n3)cc2)NC(=O)c2ccccc2N1 (stereo not given) | 5.22 | 5.59 | 91.64 | > 400 | 237 | 37.4 | –
COc1cccc(-c2cc(-c3ccc(C4NC(=O)c5ccccc5N4)cc3)nc(N)n2)c1OC (stereo not given) | 5.37 | 5.35 | >90.29 | > 400 | > 400 | – | –

SMILES | pIC50 (Leishmania donovani [1]) | pIC50 (Leishmania donovani [2]) | Ratio CC50/IC50 [3] | CC50 at 72 h [4] [µM] | CC50 at 72 h [5] [µM] | inhibition in vivo at 50 mg/kg/day (Leishmania donovani [6]) [%] | logP [7]
CC(C)c1ccc(C(C(=O)NC2CCCCC2)N(C(=O)c2cccc(Cl)c2)c2ccc(C3(C)NC(=O)c4ccccc4N3)cc2)cc1 (stereo not given) | < 4.40 | 5.32 | >84.38 | > 400 | > 400 | 48 | 8.53
CC(C)(C)NC(=O)C(c1ccc(Br)cc1)N(C(=O)c1cccc(Cl)c1)c1ccc(C2(C)NC(=O)c3ccccc3N2)cc1 (stereo not given) | < 4.40 | 4.81 | – | – | – | – | –
CC1(c2ccc(NC(c3ccc(Br)cc3)c3nnnn3C3CCCCC3)cc2)NC(=O)c2ccccc2N1 (stereo not given) | < 4.40 | 5.03 | >42.46 | > 400 | > 400 | – | –
Nc1nc(-c2ccc(Br)cc2)cc(-c2ccc(C3NC(=O)c4ccccc4N3)cc2)n1 (stereo not given) | 5.55 | 5.15 | 17.82 | > 400 | 125 | – | –
CC1(c2ccc(Nc3nc(N4CCCc5ccccc54)nc(N4CCCc5ccccc54)n3)cc2)NC(=O)c2ccccc2N1 (stereo not given) | 4.48 | < 4.40 | – | – | – | – | –
CC(C)c1ccc(C(Nc2ccc(C3(C)NC(=O)c4ccccc4N3)cc2)c2nnnn2C2CCCCC2)cc1 (stereo not given) | 5.15 | 5.04 | >44.1 | > 400 | > 400 | – | –
COc1ccc(-c2cc(-c3ccc(C4NC(=O)c5ccccc5N4)cc3)nc(N)n2)cc1 (stereo not given) | 5.24 | 5.00 | 17.64 | 124 | 178 | – | –
CC1(c2ccc(N(C(=O)c3cccc(Cl)c3)C(C(=O)NC3CCCCC3)c3ccc(Cl)cc3)cc2)NC(=O)c2ccccc2N1 (stereo not given) | 4.40 | 4.80 | – | – | – | – | –
CC(C)(C)n1nnnc1C(c1ccc(C2NC(=O)c3ccccc3N2)cc1)N1CCc2ccccc2C1 (stereo not given) | 5.90 | < 4.40 | – | – | – | – | –
COc1ccc(CNc2nc(NCc3ccc(OC)cc3)nc(Nc3ccc(C4(C)NC(=O)c5ccccc5N4)cc3)n2)cc1 (stereo not given) | < 4.40 | < 4.40 | – | – | – | – | –
CCCNc1nc(NCCC)nc(Nc2ccc(C3(C)NC(=O)c4ccccc4N3)cc2)n1 (stereo not given) | 5.05 | 5.05 | >45.09 | > 400 | > 400 | – | –
CCCCNC(c1ccc(C2NC(=O)c3ccccc3N2)cc1)c1nnnn1C(C)(C)C (stereo not given) | 5.25 | < 4.40 | – | – | – | – | –
COc1ccc(C(Nc2ccc(C3(C)NC(=O)c4ccccc4N3)cc2)c2nnnn2C(C)(C)C)cc1 (stereo not given) | 5.52 | 4.88 | >30.65 | > 400 | > 400 | – | –
CCCCNc1nc(NCCCC)nc(Nc2ccc(C3(C)NC(=O)c4ccccc4N3)cc2)n1 (stereo not given) | 5.11 | 5.32 | 8.35 | 142 | 40.1 | – | –
CC1(c2ccc(Nc3nc(NCCCN4CCOCC4)nc(NCCCN4CCOCC4)n3)cc2)NC(=O)c2ccccc2N1 (stereo not given) | < 4.40 | < 4.40 | – | – | – | – | –
COc1cc(-c2cc(-c3ccc(C4NC(=O)c5ccccc5N4)cc3)nc(N)n2)cc(OC)c1OC (stereo not given) | 5.46 | 5.42 | 26.97 | 85.9 | 103 | – | –
COc1ccc(C(C(=O)NC(C)(C)C)N(C(=O)c2cccc(Cl)c2)c2ccc(C3(C)NC(=O)c4ccccc4N3)cc2)cc1 (stereo not given) | < 4.40 | 4.53 | – | – | – | – | –
CC(C)(C)NC(=O)C(c1ccc(Cl)cc1)N(C(=O)c1cccc(Cl)c1)c1ccc(C2(C)NC(=O)c3ccccc3N2)cc1 (stereo not given) | < 4.40 | 4.87 | >29.67 | > 400 | > 400 | – | –
COc1ccc(C(Nc2ccc(C3(C)NC(=O)c4ccccc4N3)cc2)c2nnnn2C(C)(C)C)c2ccccc12 (stereo not given) | 5.59 | 4.81 | – | – | – | – | –
CC1(c2ccc(NC(c3ccc(F)cc3)c3nnnn3C(C)(C)C)cc2)NC(=O)c2ccccc2N1 (stereo not given) | 5.43 | < 4.70 | – | – | – | – | –
